Results as given in patent US20220213102A1, “DIAZEPINONE DERIVATIVES AS CAPSID ASSEMBLY MODULATORS” (Janssen Sciences Ireland Unlimited Company, priority 2019, published 2022).

Test system: HBV
Test: HBV replication inhibition assay (BDNA assay) in HepG2.2.15 cells
Assay type: cell-based
Details: Hepatitis B virus, HepG2.2.15, 144 h, encapsidated HBV DNA in supernatant at day 6, BDNA QuantiGene assay
Description: HBV replication inhibition by the disclosed compounds were determined in cells infected or transfected with HBV or cells with stably integrated HBV, such as HepG2.2.15 cells (Sells et al. 1987). In this example, HepG2.2.15 cells were maintained in cell culture medium containing 10% fetal bovine serum (FBS), Geneticin, L-glutamine, penicillin and streptomycin. HepG2.2.15 cells were seeded in 96-well plates at a density of 40,000 cells/well and were treated with serially diluted compounds at a final DMSO concentration of 0.5% either alone or in combination by adding drugs in a checker box format. Cells were incubated with compounds for three days, after which medium was removed and fresh medium containing compounds was added to cells and incubated for another three days. At day 6, supernatant was removed and treated with DNase at 37° C. for 60 minutes, followed by enzyme inactivation at 75° C. for 15 minutes. Encapsidated HBV DNA was released from the virions and covalently linked HBV polymerase by incubating in lysis buffer (Affymetrix QS0010) containing 2.5 μg proteinase K at 50° C. for 40 minutes. HBV DNA was denatured by addition of 0.2 M NaOH and detected using a branched DNA (BDNA) QuantiGene assay kit according to manufacturer recommendation (Affymetrix). HBV DNA levels were also quantified using qPCR, based on amplification of encapsidated HBV DNA extraction with QuickExtraction Solution (Epicentre Biotechnologies) and amplification of HBV DNA using HBV specific PCR probes that can hybridize to HBV DNA and a fluorescently labeled probe for quantitation. In addition, cell viability of HepG2.2.15 cells incubated with test compounds alone or in combination was determined by using CellTitre-Glo reagent according to the manufacturer protocol (Promega). The mean background signal from wells containing only culture medium was subtracted from all other samples, and percent inhibition at each compound concentration was calculated by normalizing to signals from HepG2.2.15 cells treated with 0.5% DMSO using equation E1.
% inhibition=(DMSOave−Xi)/DMSOave×100% E1:
where DMSOave is the mean signal calculated from the wells that were treated with DMSO control (0% inhibition control) and Xi is the signal measured from the individual wells. EC50 values, effective concentrations that achieved 50% inhibitory effect, were determined by non-linear fitting using Graphpad Prism software (San Diego, Calif.) and equation E2.
Y=Ymin+(Ymax−Ymin)/(1+10(Log EC50−X)×HillSlope) E2:
where Y represents percent inhibition values and X represents the logarithm of compound concentrations.
Selected disclosed compounds were assayed in the HBV replication assay (BDNA assay), as described above, and a representative group of these active compounds is shown in Table 3.

Question: For `CN1CC(c2nnn[nH]2)Cn2nc3c(c2C1=O)CN(C(=O)Nc1ccc(F)c(C#N)c1)CC3` (stereo not shown) [Example 3, N-(3-Cyano-4-fluorophenyl)-10-methyl-11-oxo-8-(1H-tetrazol-5-yl)-3,4,8,9,10,11-hexahydro-1H-pyrido[4′,3′:3,4]pyrazolo[1,5-a][1,4]diazepine-2(7H)-carboxamide], which EC50 is on record?
Answer: > 4000 nM

Question: `CN1CC(c2cc[nH]n2)Cn2nc3c(c2C1=O)CN(C(=O)Nc1ccc(F)c(Cl)c1)CC3` (stereo not shown) [Example 4, N-(3-Chloro-4-fluorophenyl)-10-methyl-11-oxo-8-(1H-pyrazol-3-yl)-3,4,8,9,10,11-hexahydro-1H-pyrido[4′,3′:3,4]pyrazolo[1,5-a][1,4]diazepine-2(7H)-carboxamide] was tested. Which EC50 did it give?
Answer: 93 nM

Question: Which EC50 does the source give for `CN1CC(c2ccnn2C)Cn2nc3c(c2C1=O)CN(C(=O)Nc1ccc(F)c(C#N)c1)CC3` (stereo not shown) [Example 6, N-(3-Cyano-4-fluorophenyl)-10-methyl-8-(1-methyl-1H-pyrazol-5-yl)-11-oxo-3,4,8,9,10,11-hexahydro-1H-pyrido[4′,3′:3,4]pyrazolo[1,5-a][1,4]diazepine-2(7H)-carboxamide] here?
Answer: 83 nM

Question: For `CN1CC(c2ncno2)Cn2nc3c(c2C1=O)CN(C(=O)Nc1ccc(F)c(C#N)c1)CC3` (stereo not shown) [Example 2, N-(3-Cyano-4-fluorophenyl)-10-methyl-8-(1,2,4-oxadiazol-5-yl)-11-oxo-3,4,8,9,10,11-hexahydro-1H-pyrido[4′,3′:3,4]pyrazolo[1,5-a][1,4]diazepine-2(7H)-carboxamide], which EC50 is on record?
Answer: > 4000 nM

Question: `CN1CC(O)(c2ccccc2)Cn2nc3c(c2C1=O)CN(C(=O)Nc1ccc(F)c(C#N)c1)CC3` (stereo not shown) [Example 15, N-(3-Cyano-4-fluoro-phenyl)-11-hydroxy-13-methyl-14-oxo-11-phenyl-4,8,9,13-tetrazatricyclo[7.5.0.0^2,7]tetradeca-1,7-diene-4-carboxamide] was tested. Which EC50 did it give?
Answer: 140 nM

Question: Which EC50 does the source give for `CN1CC(F)(c2ccccc2)Cn2nc3c(c2C1=O)CN(C(=O)Nc1ccc(F)c(C#N)c1)CC3` (stereo not shown) [Example 16, N-(3-Cyano-4-fluorophenyl)-8-fluoro-10-methyl-11-oxo-8-phenyl-3,4,8,9,10,11-hexahydro-1H-pyrido[4′,3′:3,4]pyrazolo[1,5-a][1,4]diazepine-2(7H)-carboxamide] here?
Answer: 176 nM

Question: With `CN1CC(c2nc[nH]n2)Cn2nc3c(c2C1=O)CN(C(=O)Nc1ccc(F)c(C#N)c1)CC3` (stereo not shown) [Example 1, N-(3-Cyano-4-fluorophenyl)-10-methyl-11-oxo-8-(1H-1,2,4-triazol-3-yl)-3,4,8,9,10,11-hexahydro-1H-pyrido[4′,3′:3,4]pyrazolo[1,5-a][1,4]diazepine-2(7H)-carboxamide] as the compound, how does the EC50 read?
Answer: > 4000 nM
